Earlier results on 1 substance are cited in US11813289B2, “Encapsulated antimicrobials and related methods of treatment” (ADVANTAGE SILVER DENTAL ARREST, LLC, priority 2018, dated 2023).

For the data set, the system named is dentinal caries lesions. Particulars: lesions that had progressed into the dentin.

silver diamine fluoride [SDF]: the “dentinal caries lesions arrested after treatment” value was “two-thirds”.
